Reference: ChEMBL document CHEMBL1143071, “Sodium pancratistatin 3,4-o-cyclic phosphate, a water-soluble synthetic derivative of pancratistatin, is highly effective in a human colon tumor model” (J Nat Prod, 2008)
The source made the active and inactive calls. The calls are words filed in the database; no cut-off is given here.

Tests used:
DLD-1 [1] = test: Antitumor activity against human DLD1 cells after 1 hr by MTT assay; format: functional, cell-based; conditions: DLD-1, 1 h
DLD-1 [2] = test: Antitumor activity against human DLD1 cells after 96 hrs; format: functional, cell-based; conditions: DLD-1, 96 h
DLD-1 [3] = test: Cell cycle arrest in human DLD1 cells assessed as accumulation at G2/M phase at 25 uM; format: functional, cell-based
DLD-1 [4] = test: Antitumor activity in human DLD1 cells xenografted CD1 immunodeficient nude mouse at 100 mg/kg after 24 hrs assessed as increase in tumor necrosis; format: functional
DLD-1 [5] = test: Antitumor activity in human DLD1 cells xenografted CD1 immunodeficient nude mouse at 100 mg/kg after 24 hrs assessed as decrease in functional vasculature; set-up: scale not given: the % may be the effect or the level left
DLD-1 [6] = test: Reduction in mitochondrial membrane potential in human DLD1 cells at 250 uM after 4 hrs assessed as decrease in fluorescence of mitoTracker green FM; format: functional, cell-based
DLD-1 [7] = test: Reduction in mitochondrial membrane potential in human DLD1 cells at 250 uM after 7 hrs assessed as decrease in fluorescence of mitoTracker green FM; format: functional, cell-based
DLD-1 [8] = test: Reduction in mitochondrial membrane potential in human DLD1 cells at 250 uM after 24 hrs assessed as decrease in fluorescence of mitoTracker green FM; format: functional, cell-based
DLD-1 [9] = test: Antitumor activity in human DLD1 cell xenografted CD1 immunodeficient nude mouse at 100 mg/kg, iv assessed as weight loss; format: functional
DLD-1 [10] = test: Antitumor activity in human DLD1 cell xenografted CD1 immunodeficient nude mouse at 100 mg/kg, iv assessed as mean tumor doubling time; format: functional
HUVEC [11] = test: Disruption of normal microtubule structure in HUVEC cells at 250 uM after 1 hr; format: functional, cell-based; conditions: Homo sapiens
HUVEC [12] = test: (§1) Disruption of normal microtubule structure in HUVEC cells at 250 uM after 3 hrs; format: functional, cell-based; conditions: Homo sapiens
HUVEC [13] = test: as §1; format: functional, cell-based; conditions: Homo sapiens; remark: listed apart in the source
DLD-1 [14] = test: Antitumor activity in human DLD1 cells xenografted CD1 immunodeficient nude mouse after 24 hrs assessed as increase in tumor necrosis; format: functional
DLD-1 [15] = test: Antitumor activity in human DLD1 cells xenografted CD1 immunodeficient nude mouse after 24 hrs assessed as decrease in functional vasculature; set-up: scale not given: the % may be the effect or the level left
DLD-1 [16] = test: Disruption of normal microtubule structure in human DLD1 cells at 440 nM; format: functional, cell-based
HUVEC [17] = test: Disruption of normal microtubule structure in HUVEC cells at 440 nM; format: functional, cell-based; conditions: Homo sapiens
DLD-1 [18] = test: Antitumor activity in human DLD1 cell xenografted CD1 immunodeficient nude mouse assessed as mean tumor doubling time; format: functional
DLD-1 [19] = test: Antitumor activity in human DLD1 cell xenografted CD1 immunodeficient nude mouse assessed as weight loss; format: functional

IC50 (DLD-1 [1]) [µM]	IC50 (DLD-1 [2]) [µM]	SMILES	Activity (DLD-1 [3])	Activity (DLD-1 [4]) [%]	Activity (DLD-1 [5]) [%]	Activity (DLD-1 [6])	Activity (DLD-1 [7])	Activity (DLD-1 [8])	Activity (DLD-1 [9]) [%]	Activity (DLD-1 [10]) [days]	Activity (HUVEC [11])	Activity (HUVEC [12])	Activity (HUVEC [13])	Activity (DLD-1 [14]) [%]	Activity (DLD-1 [15]) [%]	Activity (DLD-1 [16])	Activity (HUVEC [17])	Activity (DLD-1 [18]) [days]	Activity (DLD-1 [19]) [%]
253	19.7	O=C1N[C@H]2[C@@H]3OP(=O)([O-])O[C@@H]3[C@@H](O)[C@H](O)[C@@H]2c2cc3c(c(O)c21)OCO3.[Na+]	inactive	95.3	0.6	Active	Active	Active	8.8	15.1	inactive	inactive	inactive	–	–	–	–	–	–
–	–	CC(=O)O[C@H]1C(=O)[C@@]2(C)[C@H]([C@H](OC(=O)c3ccccc3)[C@]3(O)C[C@H](OC(=O)[C@H](O)[C@@H](NC(=O)c4ccccc4)c4ccccc4)C(C)=C1C3(C)C)[C@]1(OC(C)=O)CO[C@@H]1C[C@@H]2O [PACLITAXEL]	–	–	–	–	–	–	–	–	–	–	–	8.1	6.5	Active	Active	6.2	0.5
